# Measured values taken from ChEMBL document CHEMBL5506058, “Discovery of Quinazoline and Quinoline-Based Small Molecules as Utrophin Upregulators via AhR Antagonism for the Treatment of Duchenne Muscular Dystrophy” (J Med Chem, 2024).
# Active and inactive are the calls of the source. No cut-off for these calls is given here.
# Tests used:
# [1] = test system: C2C12; assay: Cytotoxicity against mouse C2C12 cells assessed as reduction in cell viability at 0.78 to 100 uM measured after 24 hrs by MTT assay; assay type: toxicity, cell-based; settings: c2c12, 24 h, dose 0.78-100 µM
# [2] = Upregulation of utrophin expression in mouse C2C12 cells assessed as fold increase at 800 nM measured after 72 hrs by In-cell ELISA method; assay type: functional
# [3] = test system: C2C12; assay: Upregulation of utrophin mRNA expression in mouse C2C12 cells at 800 nM measured after 72 hrs by qRT-PCR analysis; assay type: functional, cell-based
# [4] = test system: C2C12; assay: Upregulation of utrophin protein expression in mouse C2C12 level measured after 72 hrs by Westernblot analysis; assay type: functional, cell-based; settings: dose 200-800 nM
# [5] = test system: C2C12; assay: Upregulation of utrophin mRNA expression in mouse C2C12 level measured after 72 hrs by qRT-PCR analysis; assay type: functional, cell-based; settings: dose 200-800 nM
# [6] = Upregulation of utrophin protein expression in mouse C2C12 cells assessed as fold increase at 800 nM measured after 72 hrs by Western blot analysis; assay type: functional
# [7] = Upregulation of utrophin mRNA expression in mouse C2C12 cells assessed as fold increase at 800 nM measured after 72 hrs by qRT-PCR analysis; assay type: functional
smiles,measurement,setting,value
CS(=O)(=O)c1ccc2nc(Nc3cc(O)cc(O)c3)ccc2c1,Activity,[1],Toxic
same,fold change (FC),[2],1.08
CS(=O)(=O)c1ccc2nc(NCc3ccc(C(F)(F)F)cc3)ccc2c1,Activity,[1],Toxic
same,fold change (FC),[2],1.27
CCS(=O)(=O)c1ccc2nc(Nc3ccc4c(c3)OCO4)ccc2c1,Activity,[1],Toxic
same,fold change (FC),[2],0.98
CC(C)(C)c1ccc(CNc2ncc3cc(S(C)(=O)=O)ccc3n2)cc1,Activity,[1],Toxic
same,fold change (FC),[2],1.19
CS(=O)(=O)c1ccc2nc(Nc3ccc4c(c3)OCO4)ncc2c1,Activity,[1],Toxic
same,fold change (FC),[2],0.92
CCS(=O)(=O)c1ccc2nc(Nc3ccc(F)cc3)ccc2c1,Activity,[1],Toxic
same,fold change (FC),[2],0.98
COc1cc(Nc2ncc3cc(S(C)(=O)=O)ccc3n2)cc(OC)c1,Activity,[1],Toxic
same,fold change (FC),[2],1.6
CCS(=O)(=O)c1ccc2nc(NCc3ccc(F)cc3)ccc2c1,Activity,[1],Toxic
same,fold change (FC),[2],1.2
CCS(=O)(=O)c1ccc2nc(Nc3ccc(F)cc3)ncc2c1,Activity,[1],Toxic
same,fold change (FC),[2],1.23
CCS(=O)(=O)c1ccc2nc(Nc3cc(OC)cc(OC)c3)ncc2c1,Activity,[1],Toxic
same,fold change (FC),[2],1.52
CS(=O)(=O)c1ccc2nc(NCc3ccc(F)cc3)ccc2c1,Activity,[1],Toxic
same,fold change (FC),[2],1
COc1ccc(CNc2ccc3cc(S(C)(=O)=O)ccc3n2)cc1,Activity,[1],Toxic
same,fold change (FC),[2],0.94
CCS(=O)(=O)c1ccc2nc(Nc3ccc(OC)cc3)ncc2c1,Activity,[1],Toxic
same,fold change (FC),[2],1.09
CS(=O)(=O)c1ccc2cnc(NCc3ccc(C(F)(F)F)cc3)nc2c1,Activity,[1],Toxic
same,fold change (FC),[2],1.8
CCS(=O)(=O)c1ccc2nc(NCc3ccc4c(c3)OCO4)ncc2c1,Activity,[1],Toxic
same,fold change (FC),[2],0.91
CCS(=O)(=O)c1ccc2nc(Nc3ccc(O)cc3)ccc2c1,Activity,[1],Toxic
same,fold change (FC),[2],0.93
CCS(=O)(=O)c1ccc2nc(Nc3ccc(C(F)(F)F)cc3)ccc2c1,Activity,[1],Toxic
same,fold change (FC),[2],0.94
CCS(=O)(=O)c1ccc2nc(NCc3ccc(C(F)(F)F)cc3)ncc2c1,Activity,[1],Toxic
same,Activity,[3],Active
same,Activity,[4],Dose-Dependent Effect
same,Activity,[5],Dose-Dependent Effect
same,fold change (FC),[6],2.51
same,fold change (FC),[7],1.95
same,fold change (FC),[2],1.93
CS(=O)(=O)c1ccc2nc(NCc3ccncc3)ncc2c1,Activity,[1],Toxic
same,Activity,[3],Active
same,fold change (FC),[2],1.88
CC(C)(C)c1ccc(CNc2ccc3cc(S(C)(=O)=O)ccc3n2)cc1,Activity,[1],Toxic
same,fold change (FC),[2],0.99
CS(=O)(=O)c1ccc2nc(Nc3ccc(F)cc3)ccc2c1,Activity,[1],Toxic
same,fold change (FC),[2],0.93
COc1ccc(Nc2ccc3cc(S(C)(=O)=O)ccc3n2)cc1,Activity,[1],Toxic
same,fold change (FC),[2],0.87
CCS(=O)(=O)c1ccc2nc(NCc3ccc(C(C)(C)C)cc3)ccc2c1,Activity,[1],Toxic
same,fold change (FC),[2],0.9
CCS(=O)(=O)c1ccc2nc(NCc3ccc(OC)cc3)ccc2c1,Activity,[1],Toxic
same,fold change (FC),[2],0.89
CS(=O)(=O)c1ccc2nc(NCCc3cc4ccccc4[nH]3)ccc2c1,Activity,[1],Toxic
same,fold change (FC),[2],1.78
CS(=O)(=O)c1ccc2nc(NCc3ccc(O)cc3)ncc2c1,Activity,[1],Toxic
same,fold change (FC),[2],1.09
CS(=O)(=O)c1ccc2nc(NCc3ccc(O)cc3)ccc2c1,Activity,[1],Toxic
same,fold change (FC),[2],1.07
CS(=O)(=O)c1ccc2nc(Nc3ccc4c(c3)OCO4)ccc2c1,Activity,[1],Toxic
same,fold change (FC),[2],1
CS(=O)(=O)c1ccc2nc(Nc3ccc(C(F)(F)F)cc3)ccc2c1,Activity,[1],Toxic
same,fold change (FC),[2],0.93
CCS(=O)(=O)c1ccc2nc(Nc3cc(O)cc(O)c3)ccc2c1,Activity,[1],Toxic
same,fold change (FC),[2],1.02
CCS(=O)(=O)c1ccc2nc(Nc3ccc(C(C)(C)C)cc3)ncc2c1,Activity,[1],Toxic
same,fold change (FC),[2],1.13
CC(C)(C)c1ccc(Nc2ncc3cc(S(C)(=O)=O)ccc3n2)cc1,Activity,[1],Toxic
same,fold change (FC),[2],1.01
COc1ccc(CNc2ncc3cc(S(C)(=O)=O)ccc3n2)cc1,Activity,[1],Non-Toxic
same,fold change (FC),[2],1.11
CCS(=O)(=O)c1ccc2nc(NCc3ccc(C(F)(F)F)cc3)ccc2c1,Activity,[1],Toxic
same,fold change (FC),[2],1.16
CCS(=O)(=O)c1ccc2nc(Nc3ccc4c(c3)OCO4)ncc2c1,Activity,[1],Toxic
same,fold change (FC),[2],0.6
COc1cc(CNc2ncc3cc(S(C)(=O)=O)ccc3n2)cc(OC)c1,Activity,[1],Toxic
same,fold change (FC),[2],1.67
CCS(=O)(=O)c1ccc2nc(Nc3ccc(OC)cc3)ccc2c1,Activity,[1],Toxic
same,fold change (FC),[2],1.09
COc1ccc(Nc2ncc3cc(S(C)(=O)=O)ccc3n2)cc1,Activity,[1],Toxic
same,fold change (FC),[2],1.05
CS(=O)(=O)c1ccc2nc(Nc3ccc(F)cc3)ncc2c1,Activity,[1],Toxic
same,fold change (FC),[2],1.06
CS(=O)(=O)c1ccc2nc(Nc3ccc(O)cc3)ccc2c1,Activity,[1],Toxic
same,fold change (FC),[2],1.03
CCS(=O)(=O)c1ccc2nc(NCCc3cc4ccccc4[nH]3)ccc2c1,Activity,[1],Toxic
same,fold change (FC),[2],1.3
CS(=O)(=O)c1ccc2nc(NCCc3cc4ccccc4[nH]3)ncc2c1,Activity,[1],Toxic
same,fold change (FC),[2],1.81
CCS(=O)(=O)c1ccc2nc(NCc3ccc(C(C)(C)C)cc3)ncc2c1,Activity,[1],Toxic
same,fold change (FC),[2],1.07
CS(=O)(=O)c1ccc2nc(NCc3ccncc3)ccc2c1,Activity,[1],Toxic
same,fold change (FC),[2],1.42
CCS(=O)(=O)c1ccc2nc(NCc3ccc(OC)cc3)ncc2c1,Activity,[1],Toxic
same,fold change (FC),[2],1.01
CCS(=O)(=O)c1ccc2nc(NCc3ccncc3)ccc2c1,Activity,[1],Toxic
same,fold change (FC),[2],1.73
CC(C)(C)c1ccc(Nc2ccc3cc(S(C)(=O)=O)ccc3n2)cc1,Activity,[1],Toxic
same,fold change (FC),[2],0.61
CCS(=O)(=O)c1ccc2nc(Nc3ccc(C(C)(C)C)cc3)ccc2c1,Activity,[1],Toxic
same,fold change (FC),[2],0.93
CCS(=O)(=O)c1ccc2nc(NCc3cc(OC)cc(OC)c3)ccc2c1,Activity,[1],Toxic
same,fold change (FC),[2],1.42
CCS(=O)(=O)c1ccc2nc(Nc3cc(OC)cc(OC)c3)ccc2c1,Activity,[1],Toxic
same,fold change (FC),[2],1.17
CCS(=O)(=O)c1ccc2nc(Nc3ccc(C(F)(F)F)cc3)ncc2c1,Activity,[1],Toxic
same,fold change (FC),[2],1.25
COc1cc(CNc2ccc3cc(S(C)(=O)=O)ccc3n2)cc(OC)c1,Activity,[1],Toxic
same,fold change (FC),[2],1.26
CCS(=O)(=O)c1ccc2nc(NCc3ccc(O)cc3)ccc2c1,Activity,[1],Toxic
same,fold change (FC),[2],0.98
COc1cc(Nc2ccc3cc(S(C)(=O)=O)ccc3n2)cc(OC)c1,Activity,[1],Toxic
same,fold change (FC),[2],1.32
CS(=O)(=O)c1ccc2cnc(NCc3ccc(F)cc3)nc2c1,Activity,[1],Toxic
same,fold change (FC),[2],0.95
CCS(=O)(=O)c1ccc2nc(NCc3cc(OC)cc(OC)c3)ncc2c1,Activity,[1],Toxic
same,fold change (FC),[2],1.62
CCS(=O)(=O)c1ccc2nc(NCc3ccc4c(c3)OCO4)ccc2c1,Activity,[1],Toxic
same,fold change (FC),[2],0.98
CCS(=O)(=O)c1ccc2nc(Nc3ccc(O)cc3)ncc2c1,Activity,[1],Toxic
same,fold change (FC),[2],1.08
CCS(=O)(=O)c1ccc2cnc(NCc3ccc(F)cc3)nc2c1,Activity,[1],Toxic
same,fold change (FC),[2],0.67
CCS(=O)(=O)c1ccc2nc(NCCc3cc4ccccc4[nH]3)ncc2c1,Activity,[1],Toxic
same,fold change (FC),[2],1.73
CCS(=O)(=O)c1ccc2cnc(NCc3ccc(C(F)(F)F)cc3)nc2c1,Activity,[1],Toxic
same,fold change (FC),[2],1.51
CS(=O)(=O)c1ccc2nc(NCc3ccc4c(c3)OCO4)ccc2c1,Activity,[1],Toxic
same,fold change (FC),[2],0.97
CS(=O)(=O)c1ccc2nc(Nc3ccc(C(F)(F)F)cc3)ncc2c1,Activity,[1],Toxic
same,fold change (FC),[2],1.06
CCS(=O)(=O)c1ccc2nc(NCc3ccc(O)cc3)ncc2c1,Activity,[1],Toxic
same,fold change (FC),[2],1.12
CS(=O)(=O)c1ccc2nc(NCc3ccc4c(c3)OCO4)ncc2c1,Activity,[1],Toxic
same,fold change (FC),[2],0.92
CCS(=O)(=O)c1ccc2nc(NCc3ccc(F)cc3)ncc2c1,Activity,[1],Toxic
same,fold change (FC),[2],1.4
CCS(=O)(=O)c1ccc2nc(NCc3ccncc3)ncc2c1,Activity,[1],Toxic
same,fold change (FC),[2],1.77
CS(=O)(=O)c1ccc2nc(Nc3ccc(O)cc3)ncc2c1,Activity,[1],Toxic
same,fold change (FC),[2],1.06
CS(=O)(=O)c1ccc2nc(NCc3ccc(C(F)(F)F)cc3)ncc2c1,Activity,[1],Toxic
same,fold change (FC),[2],1.27
